Entries after “also recorded” stand apart in the source; their conditions may differ. Read-outs that look alike come from different tables or passages of the source.
Legend:
spleen red cell = assay: Chemoprotection study: spleen red cell count in cyclophosphamide treated mice; format: in vivo, C57BL/6 mice
Source text: Effect of tricaprin, capric acid and sodium caprate on in vivo induction of immune cell proliferation or protection was undertaken following the protocol described in example 1. After the sacrifice, tissues were crushed in PBS buffer and cells were counted on a hemacytometer. Effect of oral and intravenous administration of sodium caprate on in vivo induction of immune cell proliferation or protection was undertaken following the protocol described in example 1. After sacrifice, tissues were crushed in PBS buffer and cells were counted on a hemacytometer.

[1] = tested on: bone marrow from the femur; details: for Gross pathological observations: Bone Marrow Color: femur at day +5; for appearance of the femur (bone marrow): immunosuppression induced by 5-fluorouracil (5-FU) 80 mg/kg i.v., compared with the cyclophosphamide results (red femur)
Protocol: Female C57BL/6 mice, 6 to 8 week old, were immunosuppressed by treatment with 200 mg/kg of cyclophosphamide (CY) or 80 mg/kg 5-fluorouracil (5-FU) administered intravenously at day 0. To examine the immunoprotective effect of MCT or other compounds, mice were pre-treated orally at day −3, −2 and −1 at day 0 with the compound. Mice were sacrificed at day +5 by cardiac puncture and cervical dislocation. Then, a gross pathological observation of the femurs (as a source of bone marrow cells) was recorded.

bone marrow red cell = assay: Chemoprotection study: bone marrow red cell count in cyclophosphamide treated mice, comparison with GM-CSF; format: in vivo, C57BL/6 mice
Source text: (§1) Effect of oral and intravenous administration of sodium caprate and GM-CSF on in vivo induction of immune cell proliferation or protection was undertaken following the protocol described in example 1. After sacrifice, tissues were crushed in PBS buffer and cells were counted on a hemacytometer.

human bone marrow cells = assay: In vitro human bone marrow cell proliferation ([3H]-thymidine incorporation); format: cell-based
Protocol: Bone marrow cells were obtained from the sternum of cancer patients. Cells were washed with PBS and resuspended at a concentration of 2×10^6 cells per ml. Cells were cultured in RPMI/FBS media in the presence or the absence of tricaprin or tricaprylin for 48 and 72 hours at 37° C. After incubation, cells were pulsed with 1 μCi of [^3H]-thymidine for 6 hours. Plates were harvested on a Tomteck and counted on a Microbeta β-counter. Incorporation of [^3H]-thymidine in the DNA is a direct indication of the cell proliferation.

[2] = tested on: human hematopoietic progenitors; assay: In vitro human bone marrow colony forming unit (CFU) formation assay; format: cell-based; details: for BFU-E / CFU-GEMM / CFU-GM / TOTAL CFC (Colony Forming Cells): tricaprin 10%; for increase in BFU-E colonies formation / increase in the number of CFU-GEMM: versus control
Protocol: Bone marrow cells were obtained from the sternum of various cancer patients. Cells were washed with PBS and resuspended at a concentration of 2×10^6 cells per ml. Cells were cultured in RPMI/FBS or Myelocult (Stem cell technology, Vancouver)/FBS media in the presence or the absence of tricaprin for 5 days at 37° C. After incubation, cells were harvested, washed and counted. Based on the viable cells count, the cells were resuspended at a concentration of 5×10^5 cells per ml in IMDM media supplemented with 2% FBS. From these cells, four replicates of 2.5×10^4 cells per dish were plated in Methocult medium so that a colony forming unit (CFU) formation assay could be undertaken. CFU-GM, CFU-GEMM and BFU-E were recorded after 14 to 16 days culture.

peripheral blood cell = assay: Chemoprotection study: number of peripheral blood cell; format: in vivo, C57BL/6 mice; details: sodium caprate used alone
Source text: as §1

bone marrow cells = assay: Anemia model: ex vivo bone marrow colony forming unit (CFU) formation assay; format: in vivo, BALB/c mice; details: i.v. pre-treatment
Protocol: To examine the immunoprotective or immunorestorative effect of sodium caprate in an anemia model, BALB/c mice were pre-treated intravenously at day −3, −2 and −1 with compound. Anemia was induced by treatment with 60 mg/kg phenylhydrazine administered intraperitonealy at day 0 to female BALB/c mice, 6 to 8 week old. Mice were sacrificed at day +6 by cardiac puncture and cervical dislocation. Then, bone marrow cells were obtained from femur. Cells were flushed and washed with PBS. Based on the viable cells count, the cells were resuspended at a concentration of 5×10^5 cells per ml in IMDM media supplemented with 2% FBS. From these cells, two replicates of 3×10^4 cells per dish were plated in Methocult medium so that a colony forming unit (CFU) formation assay could be undertaken. CFU-E and BFU-E were recorded after 2 to 3 days culture. CFU-GM and CFU-GEMM were recorded after 14 to 16 days culture.

[3] = cyclophosphamide (CY) 200 mg/kg i.v. day 0 plus compound given orally as pre-treatment
[4] = single agent (GM-CSF at high concentration, 1 μg/kg)
[5] = Myelocult/FBS medium, Experiment 1
[6] = Myelocult/FBS medium, Experiment 2
[7] = normal mice, bone marrow cells in Methocult
[8] = phenylhydrazine-induced anemia mice (60 mg/kg i.p.)

Compound: CCCCCCCCCC(=O)O [capric acid]
- spleen red cell count (spleen red cell; oral pre-treatment): significant increase
- Gross pathological observations: Bone Marrow Color [1, 3]: Red
- appearance of the femur (bone marrow) [1]: same results

Compound: GM-CSF: GM-CSF, comparator growth factor used at 1 μg/kg
- bone marrow red cell count (bone marrow red cell; [4]): significant increase

Compound: CCCCCCCC(=O)OCC(COC(=O)CCCCCCC)OC(=O)CCCCCCC [tricaprylin]
- bone marrow proliferation in combination with erythropoietin (EPO) (human bone marrow cells; time not stated): synergistic increase
- increase in bone marrow proliferation relative to the control (human bone marrow cells; human bone marrow cells, RPMI/FBS, 48 and 72 hours, [3H]-thymidine): 2 fold
- Gross pathological observations: Bone Marrow Color [1, 3]: Red
- appearance of the femur (bone marrow) [1]: same results

Compound: CCCCCCCCCC(=O)OCC(COC(=O)CCCCCCCCC)OC(=O)CCCCCCCCC [tricaprin]
- spleen red cell count (spleen red cell; oral pre-treatment): significant increase
- BFU-E [2, 5]: 380
- CFU-GEMM [2, 5]: 4.75
- CFU-GM [2, 5]: 17
- TOTAL CFC (Colony Forming Cells) [2, 5]: 401
- BFU-E [2, 6]: 268
- CFU-GEMM [2, 6]: 4.25
- CFU-GM [2, 6]: 34
- TOTAL CFC (Colony Forming Cells) [2, 6]: 306
- increase in BFU-E colonies formation ([2]; Myelocult/FBS medium): up to 6 times
- increase in the number of CFU-GEMM ([2]; Myelocult/FBS medium): up to 2 times
- BFU-E ([2]; RPMI/FBS medium, Experiment 1): 130
- CFU-GEMM ([2]; RPMI/FBS medium, Experiment 1): 4.75
- CFU-GM ([2]; RPMI/FBS medium, Experiment 1): 26
- TOTAL CFC (Colony Forming Cells) ([2]; RPMI/FBS medium, Experiment 1): 161
- BFU-E ([2]; RPMI/FBS medium, Experiment 2): 121
- CFU-GEMM ([2]; RPMI/FBS medium, Experiment 2): 4
- CFU-GM ([2]; RPMI/FBS medium, Experiment 2): 25
- TOTAL CFC (Colony Forming Cells) ([2]; RPMI/FBS medium, Experiment 2): 150
- increase in BFU-E colonies formation ([2]; RPMI/FBS medium): up to 13 times
- increase in the number of CFU-GEMM ([2]; RPMI/FBS medium): up to 3 times
- bone marrow proliferation in combination with erythropoietin (EPO) (human bone marrow cells; 48 hours): additive
- bone marrow proliferation in combination with erythropoietin (EPO) (human bone marrow cells; 72 hours): synergistic
- Gross pathological observations: Bone Marrow Color [1, 3]: Red
- appearance of the femur (bone marrow) [1]: same results

Compound: O=P1(N(CCCl)CCCl)NCCCO1 (stereo not shown) [CY, cyclophosphamide, reference compound]
- Gross pathological observations: Bone Marrow Color ([1]; cyclophosphamide (CY) 200 mg/kg i.v. day 0 alone): White, almost translucent

Compound: CCCCCCCCCC(=O)[O-].[Na+] [sodium caprate]
- number of peripheral blood cell (peripheral blood cell): significant increase
- spleen red cell count (spleen red cell; intravenous pre-treatment): significant increase; also recorded: increases the spleen red cell counts to the baseline level of control mice
- spleen red cell count (spleen red cell; oral pre-treatment): significant increase
- number of CFU-E (bone marrow cells; [7]): enhances
- number of CFU-GEMM (bone marrow cells; [7]): enhances
- CFU-E (bone marrow cells; [8]): strong increase
- CFU-GEMM (bone marrow cells; [8]): strong increase
- CFU-GM (bone marrow cells; [8]): strong increase
- bone marrow red cell count (bone marrow red cell; in combination with GM-CSF): additive increase
- bone marrow red cell count (bone marrow red cell; [4]): significant increase
- Gross pathological observations: Bone Marrow Color [1, 3]: Red
- appearance of the femur (bone marrow) [1]: same results
